Data: US9469650B2, “Melampomagnolide B derivatives” (BOARD OF TRUSTEES OF THE UNIVERSITY OF ARKANSAS, priority 2013, dated 2016)

Experiments:
HCC-2998 = assay: panel of 60 human tumor cell lines, growth inhibition (Colon Cancer); details: HCC-2998
IGROV1 = assay: panel of 60 human tumor cell lines, growth inhibition (Ovarian Cancer); details: IGROVI
ACHN = assay: panel of 60 human tumor cell lines, growth inhibition (Renal Cancer)
RXF 393 = assay: as above; details: RXF 393
MDA-MB-435 = assay: panel of 60 human tumor cell lines, growth inhibition (Melanoma); details: MDA-MB-435
HOP-92 = assay: panel of 60 human tumor cell lines, growth inhibition (Non-Small Cell Lung Cancer); details: HOP-92
UO-31 = assay: panel of 60 human tumor cell lines, growth inhibition (Renal Cancer); details: UO-31
SK-OV-3 = assay: panel of 60 human tumor cell lines, growth inhibition (Ovarian Cancer); details: SK-OV-3
SNB-19 = assay: panel of 60 human tumor cell lines, growth inhibition (CNS Cancer); details: SNB-19
BT-549 = assay: panel of 60 human tumor cell lines, growth inhibition (Breast Cancer)
NCI-H322M = assay: panel of 60 human tumor cell lines, growth inhibition (Non-Small Cell Lung Cancer)
NCI-H460 = assay: as above; details: NCI-H460
NCI-H23 = assay: as above; details: NCI-H23
SF-539 = assay: panel of 60 human tumor cell lines, growth inhibition (CNS Cancer); details: SF-539
SK-MEL-5 = assay: panel of 60 human tumor cell lines, growth inhibition (Melanoma); details: 8K-MEL-5
MOLT-4 = assay: panel of 60 human tumor cell lines, growth inhibition (Leukemia); details: MOLT-4
MCF7 = assay: panel of 60 human tumor cell lines, growth inhibition (Breast Cancer); details: MCF7
HCT-15 = assay: panel of 60 human tumor cell lines, growth inhibition (Colon Cancer); details: HCT-15
T-47D = assay: panel of 60 human tumor cell lines, growth inhibition (Breast Cancer); details: T-47D

In the case of `C=C1C(=O)O[C@H]2[C@H]1CC/C(COC(=O)NCCN1CCCCC1)=C\CC[C@@]1(C)O[C@@H]21` [JVM 2-13], the GI50 (HCC-2998) is reported as 18.5 µM, the TGI (HCC-2998) is reported as 36 µM and the “Percent Growth” value (HCC-2998; Log10 Concentration −4.0) is reported as −77%. The “Percent Growth” value (HCC-2998; Log10 Concentration −5.0) was 96%, the “Percent Growth” value (HCC-2998; Log10 Concentration −6.0) was 104% and the “Percent Growth” value (HCC-2998; Log10 Concentration −7.0) was 105%. The “Percent Growth” value (HCC-2998; Log10 Concentration −8.0) was 99%, the GI50 (IGROV1) was 5.59 µM and the TGI (IGROV1) was 22.9 µM. The “Percent Growth” value (IGROV1; Log10 Concentration −4.0) was −58%, the “Percent Growth” value (IGROV1; Log10 Concentration −5.0) was 33% and the “Percent Growth” value (IGROV1; Log10 Concentration −6.0) was 101%. The “Percent Growth” value (IGROV1; Log10 Concentration −7.0) was 106%, the “Percent Growth” value (IGROV1; Log10 Concentration −8.0) was 105% and the GI50 (ACHN) was 2.76 µM. For the same compound, the TGI (ACHN) was 12.3 µM, the “Percent Growth” value (ACHN; Log10 Concentration −4.0) was −80% and the “Percent Growth” value (ACHN; Log10 Concentration −5.0) was 8%. The “Percent Growth” value (ACHN; Log10 Concentration −6.0) was 83%, the “Percent Growth” value (ACHN; Log10 Concentration −7.0) was 97% and the “Percent Growth” value (ACHN; Log10 Concentration −8.0) was 94%. The GI50 (RXF 393) was 2.11 µM, the TGI (RXF 393) was 8.93 µM and the “Percent Growth” value (RXF 393; Log10 Concentration −4.0) was −84%. The “Percent Growth” value (RXF 393; Log10 Concentration −5.0) was −4%, the “Percent Growth” value (RXF 393; Log10 Concentration −6.0) was 76% and the “Percent Growth” value (RXF 393; Log10 Concentration −7.0) was 86%. For the same compound, the “Percent Growth” value (RXF 393; Log10 Concentration −8.0) was 98%, the GI50 (MDA-MB-435) was 4.13 µM and the TGI (MDA-MB-435) was 16.7 µM. For the same compound, the “Percent Growth” value (MDA-MB-435; Log10 Concentration −4.0) was −93%, the “Percent Growth” value (MDA-MB-435; Log10 Concentration −5.0) was 27% and the “Percent Growth” value (MDA-MB-435; Log10 Concentration −6.0) was 87%. For the same compound, the “Percent Growth” value (MDA-MB-435; Log10 Concentration −7.0) was 97%, the “Percent Growth” value (MDA-MB-435; Log10 Concentration −8.0) was 95% and the GI50 (HOP-92) was 1.58 µM. For the same compound, the TGI (HOP-92) was 11.2 µM, the “Percent Growth” value (HOP-92; Log10 Concentration −4.0) was −83% and the “Percent Growth” value (HOP-92; Log10 Concentration −5.0) was 4%. For the same compound, the “Percent Growth” value (HOP-92; Log10 Concentration −6.0) was 61%, the “Percent Growth” value (HOP-92; Log10 Concentration −7.0) was 76% and the “Percent Growth” value (HOP-92; Log10 Concentration −8.0) was 82%. The GI50 (UO-31) was 3.34 µM, the TGI (UO-31) was 16.1 µM and the “Percent Growth” value (UO-31; Log10 Concentration −4.0) was −81%. For the same compound, the “Percent Growth” value (UO-31; Log10 Concentration −5.0) was 21%, the “Percent Growth” value (UO-31; Log10 Concentration −6.0) was 82% and the “Percent Growth” value (UO-31; Log10 Concentration −7.0) was 91%. The “Percent Growth” value (UO-31; Log10 Concentration −8.0) was 91%, the GI50 (SK-OV-3) was 21 µM and the TGI (SK-OV-3) was 45.8 µM. The “Percent Growth” value (SK-OV-3; Log10 Concentration −4.0) was −50%, the “Percent Growth” value (SK-OV-3; Log10 Concentration −5.0) was 97% and the “Percent Growth” value (SK-OV-3; Log10 Concentration −6.0) was 97%. For the same compound, the “Percent Growth” value (SK-OV-3; Log10 Concentration −7.0) was 103%, the “Percent Growth” value (SK-OV-3; Log10 Concentration −8.0) was 92% and the GI50 (SNB-19) was 16.8 µM. The TGI (SNB-19) was 15.1 µM, the “Percent Growth” value (SNB-19; Log10 Concentration −4.0) was −71% and the “Percent Growth” value (SNB-19; Log10 Concentration −5.0) was 85%. The “Percent Growth” value (SNB-19; Log10 Concentration −6.0) was 96%, the “Percent Growth” value (SNB-19; Log10 Concentration −7.0) was 97% and the “Percent Growth” value (SNB-19; Log10 Concentration −8.0) was 98%. For the same compound, the TGI (BT-549) was 18.3 µM, the “Percent Growth” value (BT-549; 81-549, Log10 Concentration −4.0) was −96% and the “Percent Growth” value (BT-549; 81-549, Log10 Concentration −5.0) was 34%. The “Percent Growth” value (BT-549; 81-549, Log10 Concentration −6.0) was 89%, the “Percent Growth” value (BT-549; 81-549, Log10 Concentration −7.0) was 88% and the “Percent Growth” value (BT-549; 81-549, Log10 Concentration −8.0) was 83%. The GI50 (NCI-H322M) was 17.4 µM, the “Percent Growth” value (NCI-H322M; Log10 Concentration −4.0) was −89% and the “Percent Growth” value (NCI-H322M; Log10 Concentration −5.0) was 94%. The “Percent Growth” value (NCI-H322M; Log10 Concentration −6.0) was 106%, the “Percent Growth” value (NCI-H322M; Log10 Concentration −7.0) was 112% and the “Percent Growth” value (NCI-H322M; Log10 Concentration −8.0) was 105%. The TGI (NCI-H460) was 36.5 µM, the “Percent Growth” value (NCI-H460; Log10 Concentration −4.0) was −66% and the “Percent Growth” value (NCI-H460; Log10 Concentration −5.0) was 85%. The “Percent Growth” value (NCI-H460; Log10 Concentration −6.0) was 100%, the “Percent Growth” value (NCI-H460; Log10 Concentration −7.0) was 100% and the “Percent Growth” value (NCI-H460; Log10 Concentration −8.0) was 102%. For the same compound, the GI50 (NCI-H23) was 11.3 µM, the TGI (NCI-H23) was 27.2 µM and the “Percent Growth” value (NCI-H23; Log10 Concentration −4.0) was −74%. For the same compound, the “Percent Growth” value (NCI-H23; Log10 Concentration −5.0) was 57%, the “Percent Growth” value (NCI-H23; Log10 Concentration −6.0) was 104% and the “Percent Growth” value (NCI-H23; Log10 Concentration −7.0) was 100%. The “Percent Growth” value (NCI-H23; Log10 Concentration −8.0) was 98%, the GI50 (SF-539) was 3.23 µM and the TGI (SF-539) was 13.1 µM. The “Percent Growth” value (SF-539; Log10 Concentration −4.0) was −78%, the “Percent Growth” value (SF-539; Log10 Concentration −5.0) was 10% and the “Percent Growth” value (SF-539; Log10 Concentration −6.0) was 91%. The “Percent Growth” value (SF-539; Log10 Concentration −7.0) was 91%, the “Percent Growth” value (SF-539; Log10 Concentration −8.0) was 92% and the GI50 (SK-MEL-5) was 15.8 µM. The TGI (SK-MEL-5) was 30.4 µM, the “Percent Growth” value (SK-MEL-5; Log10 Concentration −4.0) was −91% and the “Percent Growth” value (SK-MEL-5; Log10 Concentration −5.0) was 85%. For the same compound, the “Percent Growth” value (SK-MEL-5; Log10 Concentration −6.0) was 99%, the “Percent Growth” value (SK-MEL-5; Log10 Concentration −7.0) was 101% and the “Percent Growth” value (SK-MEL-5; Log10 Concentration −8.0) was 100%. The TGI (MOLT-4) was 13.3 µM, the “Percent Growth” value (MOLT-4; Log10 Concentration −4.0) was −49% and the “Percent Growth” value (MOLT-4; Log10 Concentration −5.0) was 7%. For the same compound, the “Percent Growth” value (MOLT-4; Log10 Concentration −6.0) was 95%, the “Percent Growth” value (MOLT-4; Log10 Concentration −7.0) was 116% and the “Percent Growth” value (MOLT-4; Log10 Concentration −8.0) was 100%. For the same compound, the GI50 (MCF7) was 2.58 µM, the TGI (MCF7) was 11.4 µM and the “Percent Growth” value (MCF7; Log10 Concentration −4.0) was −64%. For the same compound, the “Percent Growth” value (MCF7; Log10 Concentration −5.0) was 4%, the “Percent Growth” value (MCF7; Log10 Concentration −6.0) was 82% and the “Percent Growth” value (MCF7; Log10 Concentration −7.0) was 91%. The “Percent Growth” value (MCF7; Log10 Concentration −8.0) was 87%, the GI50 (HCT-15) was 3.08 µM and the TGI (HCT-15) was 13.1 µM. For the same compound, the “Percent Growth” value (HCT-15; Log10 Concentration −4.0) was −75%, the “Percent Growth” value (HCT-15; Log10 Concentration −5.0) was 10% and the “Percent Growth” value (HCT-15; Log10 Concentration −6.0) was 88%. For the same compound, the “Percent Growth” value (HCT-15; Log10 Concentration −7.0) was 95%, the “Percent Growth” value (HCT-15; Log10 Concentration −8.0) was 91% and the GI50 (T-47D) was 2.38 µM. For the same compound, the TGI (T-47D) was 12.6 µM, the “Percent Growth” value (T-47D; Log10 Concentration −4.0) was −65% and the “Percent Growth” value (T-47D; Log10 Concentration −5.0) was 7%. For the same compound, the “Percent Growth” value (T-47D; Log10 Concentration −6.0) was 76%, the “Percent Growth” value (T-47D; Log10 Concentration −7.0) was 88% and the “Percent Growth” value (T-47D; Log10 Concentration −8.0) was 82%.
